# Earlier results as cited in patent publication US20220380769A1 (priority 2020, published 2022).
# Tested on: avian H5N1 influenza virus clades
# Settings: in vivo; cited from earlier work
substance,measurement,value
rIn.r(C12U)n [Rintatolimod],protection from lethal challenge doses of three avian H5N1 influenza virus clades,able to protect
